From US9724382B2, “Pharmaceutical compositions comprising cyclosporin” (PARI Pharma GmbH, priority 2005, dated 2017)
Read-outs that look alike come from different tables or passages of the source. Blank lines part the entries; values can stand above or below the compound they belong to.

Assays:
[1] = test system: calu-3 cells (confluent monolayer); conditions: for TEER after 2 h Average / TEER after 24 h Average: human
calu-3 cells = conditions: depending on the concentration; cited from earlier work
[2] = test system: calu-3 cells (confluent monolayer); assay: Trans-epithelial electrical resistance (TEER) of calu-3 monolayer; conditions: for TEER [% of 0 hours]: positive control 0.1%

- TEER after 2 h Average ([1]; 0.1 %): 116%
- TEER after 2 h Average ([1]; 0.5 %): 120%
- TEER after 2 h Average ([1]; 5 %): 36%
- TEER after 2 h Average ([1]; 10 %): 14%
- TEER after 24 h Average ([1]; 0.1 %): 83%
- TEER after 24 h Average ([1]; 0.5 %): 83%
- TEER after 24 h Average ([1]; 5 %): 75%
- TEER after 24 h Average ([1]; 10 %): 43%
Compound: CC(O)CO (stereo not drawn) [Propylene glycol, propylene glycol]
- effect on the integrity of the calu-3 monolayer [1]: significant and largely non-reversible damage
- effect on calu-3 cells (calu-3 cells): kills calu-3 cells

Compound: CCCCCCCCCCCCOS(=O)(=O)[O-].[Na+] [SDS, sodium dodecyl sulphate]
- TEER after 2 h Average ([2]; Conc. 0.001 %): 114%
- TEER after 24 h Average ([2]; Conc. 0.001 %): 107%
- TEER after 2 h Average ([2]; Conc. 0.010 %): 7%
- TEER after 24 h Average ([2]; Conc. 0.010 %): 2%
- TEER after 2 h Average ([2]; Conc. 0.100 %): 3%
- TEER after 24 h Average ([2]; Conc. 0.100 %): 2%
- effect on the integrity of the calu-3 monolayer ([2]; conclusion from TEER values): significant and largely non-reversible damage
- TEER [% of 0 hours] ([2]; time 0 h): 20%
- TEER [% of 0 hours] ([2]; time 1 h): 19%
- TEER [% of 0 hours] ([2]; time 2 h): 19%
- TEER [% of 0 hours] ([2]; time 24 h): 11%
